Laboratory results from US10376520B2, “Methods for the treatment of cardiovascular disorders” (Galapagos NV, priority 2015, dated 2019).

How the values were obtained:
[1] = test system: RA patients; assay: ApoB level (Selectra autoanalyzer), Study 4; type: in vivo, human; settings: for ApoB level, 4 weeks CFB: 4 weeks change from baseline
Protocol: Randomized double-blind, placebo-controlled add on study in subjects with active RA who have an inadequate response to MTX monotherapy, in combination with methotrexate, administered for 4 weeks in the treatment of subjects with active rheumatoid arthritis who have an inadequate response to methotrexate alone.
Compound 1 (dosed as a [Compound 1:HCl:3H2O]) capsules administered orally in 30 mg, 75 mg, 150 mg, or 300 mg doses per day for 4 weeks.
ApoAI, and ApoB were measured on the Selectra autoanalyzer (Sopachem BV, 44-RI Straat 33, 4051 AP Ochten, The Netherlands). All assays were commercially available from DiaSys Diagnostic Systems GmbH, Alte Strasse 9, 65558 Holzheim, Germany.

[2] = test system: RA patients; assay: Disease Activity Score 28 (DAS28(CRP)), Study 1; type: in vivo, human
From the text: As used herein, the term ‘DAS28(CRP)’ refers to a clinical scoring ranging from 2.0 to 10.0 to measure the disease status at a given point in time, and thereby follow the progress and improvement of rheumatoid arthritis in a patient, and includes a 28 tender and swollen joint count, CRP measurement from blood analysis, and a general health assessment on a visual analog scale. A DAS28(CRP) value below 2.6 is indicative of remission, A DAS28(CRP) between 2.6 and 3.2 is indicative of low disease activity, between 3.2 and 5.1 is indicative of moderate disease activity, whereas a DAS28(CRP) above 5.1 is linked to high disease activity. (Wells et al., 2008)
Double-blind, placebo-controlled add on study in subjects with moderately to severely active RA who have an inadequate response to methotrexate (MTX) (oral or parenteral).
Compound 1 (dosed as a [Compound 1:HCl:3H2O]) is dosed for twelve weeks once daily (q.d.) (50 mg, 100 mg or 200 mg) or twice daily (b.i.d.) (25 mg, 50 mg or 100 mg); or placebo.
At Week 12, the subjects on placebo who have not achieved 20% improvement in swollen joint count (SJC66) and tender joint count (TJC68) are re-randomized automatically to receive Compound 1 (dosed as a [Compound 1:HCl:3H2O]) either at 100 mg q.d. or 50 mg b.i.d. doses in a blinded fashion; subjects on 50 mg q.d. who have not achieved 20% improvement in SJC66 and TJC68 will be assigned to 100 mg q.d. and subjects on 25 mg b.i.d. that have not achieved a 20% improvement in SJC66 and TJC68 will be assigned to 50 mg b.i.d. Subjects who switch treatment at week 12 are handled as if they discontinued at week 12 for the purpose of statistical analysis, whereas subjects in the other groups will maintain their randomized treatment until Week 24.
The (DAS28(CRP)) is a system developed and validated by the European League Against Rheumatism (EULAR) to measure the progress and improvement of rheumatoid arthritis and has been extensively validated (Wells et al., 2008). The DAS28(CRP) scoring includes a 28 tender and swollen joint count, CRP measurement from blood analysis, and a general health assessment on a visual analog scale (Fransen et al., 2003).
DAS28(CRP) values range from 2.0 to 10.0, and more particularly reflect the following status: • Remission: DAS28(CRP)≤2.6 • Low Disease activity: 2.6<DAS28(CRP)≤3.2 • Moderate Disease Activity: 3.2<DAS28(CRP)≤5.1 • High Disease Activity: DAS28(CRP)>5.1
In practice, the DAS28(CRP) measurement involves the evaluation 28 different joints including in the measurement (proximal interphalangeal joints (10 joints), metacarpophalangeal joints (10), wrists (2), elbows (2), shoulders (2), and knees (2)). When looking at these joints, both the number of joints with tenderness upon touching and swelling are counted.
Firstly, the patient is asked to make a vertical mark on a 100 mm Visual Analog Scale (VAS) corresponding to their general health or global disease activity. Using an electronic touchscreen, the mark is measured from the left-hand side in mm to obtain the VAS value, which is used in the formula below.
Secondly, a swollen and tender joint examination is then performed on the patient. The swollen and tender joints are recorded. From this examination are obtained the total amount of swollen joints (SJC) and the total amount of tender joints (TJC), which are used in the formula below.
Thirdly, C-reactive protein (CRP) levels (in mg/dL) are measured.
Finally, the values obtained above (VAS, JTC28, SJC28, and CRP) are computed into the following Formula to obtain the DAS28(CRP) score.
The number of subjects (N) provided in each groups corresponds to the number of patients starting the study in each group, and the DAS28 (CRP) data reported below corresponds to the responding patients continuing for the entire 24 weeks on their initial treatment course.

O=C(Nc1nc2cccc(-c3ccc(CN4CCS(=O)(=O)CC4)cc3)n2n1)C1CC1 [Compound 1, cyclopropanecarboxylic acid {5-[4-(1,1-dioxo-thiomorpholin-4-ylmethyl)-phenyl]-[1,2,4]triazolo[1,5-a]pyridin-2yl}-amide]
ApoB level, 4 weeks CFB ([1]; 30 mg q.d.): 19.5% | ApoB level, Baseline ([1]; 30 mg q.d.): 98.8 mg/dL | ApoB level, week 4 ([1]; 30 mg q.d.): 111 mg/dL | ApoB level, 4 weeks CFB ([1]; 75 mg q.d.): −1.1% | ApoB level, Baseline ([1]; 75 mg q.d.): 98.5 mg/dL | ApoB level, week 4 ([1]; 75 mg q.d.): 94.7 mg/dL | ApoB level, 4 weeks CFB ([1]; 150 mg q.d.): −1.8% | ApoB level, Baseline ([1]; 150 mg q.d.): 93.8 mg/dL | ApoB level, week 4 ([1]; 150 mg q.d.): 90.7 mg/dL | ApoB level, 4 weeks CFB ([1]; 300 mg q.d.): 6.8% | ApoB level, Baseline ([1]; 300 mg q.d.): 89.4 mg/dL | ApoB level, week 4 ([1]; 300 mg q.d.): 95.6 mg/dL | DAS28(CRP) mean CFB (LOCF) - 24 weeks results ([2]; 50 mg q.d., Week 24): −1.98 | DAS28(CRP) mean CFB (LOCF) - 12 weeks results ([2]; 50 mg q.d., week 1): −0.65 | DAS28(CRP) mean CFB (LOCF) - 24 weeks results ([2]; 50 mg q.d., week 1): −0.65 | DAS28(CRP) mean CFB (LOCF) - 12 weeks results ([2]; 50 mg q.d., week 2): −0.94 | DAS28(CRP) mean CFB (LOCF) - 24 weeks results ([2]; 50 mg q.d., week 2): −0.94 | DAS28(CRP) mean CFB (LOCF) - 24 weeks results ([2]; 50 mg q.d., week 4): −1.28 | DAS28(CRP) mean CFB (LOCF) - 12 weeks results ([2]; 50 mg q.d., week 12): −1.75 | DAS28(CRP) mean CFB (LOCF) - 24 weeks results ([2]; 50 mg q.d., week 12): −1.75 | DAS28(CRP) mean CFB (LOCF) - 24 weeks results ([2]; 100 mg q.d., week 1): −1.00 | DAS28(CRP) mean CFB (LOCF) - 12 weeks results ([2]; 100 mg q.d., week 2): −1.50 | DAS28(CRP) mean CFB (LOCF) - 24 weeks results ([2]; 100 mg q.d., week 16): −2.51 | DAS28(CRP) mean CFB (LOCF) - 24 weeks results ([2]; 100 mg q.d., week 24): −2.70 | % patients reaching low disease activity and/or remission at week 24 (LOCF) ([2]; 200 mg q.d.): 52% | DAS28(CRP) mean CFB (LOCF) - 24 weeks results ([2]; 200 mg q.d., week 1): −1.17 | DAS28(CRP) mean CFB (LOCF) - 24 weeks results ([2]; 200 mg q.d., week 2): −1.52 | DAS28(CRP) mean CFB (LOCF) - 12 weeks results ([2]; 200 mg q.d., week 8): −2.30 | DAS28(CRP) mean CFB (LOCF) - 24 weeks results ([2]; 200 mg q.d., week 16): −2.70 | DAS28(CRP) mean CFB (LOCF) - 24 weeks results ([2]; 200 mg q.d., week 24): −2.80 | % patients reaching low disease activity and/or remission at week 24 (LOCF) ([2]; 2 × 25 mg b.i.d.): 49% | DAS28(CRP) mean CFB (LOCF) - 12 weeks results ([2]; 2 × 25 mg b.i.d., Week 1): −0.68 | DAS28(CRP) mean CFB (LOCF) - 24 weeks results ([2]; 2 × 25 mg b.i.d., Week 1): −0.68 | DAS28(CRP) mean CFB (LOCF) - 12 weeks results ([2]; 2 × 25 mg b.i.d., Week 4): −1.45 | DAS28(CRP) mean CFB (LOCF) - 24 weeks results ([2]; 2 × 25 mg b.i.d., Week 4): −1.45 | DAS28(CRP) mean CFB (LOCF) - 12 weeks results ([2]; 2 × 25 mg b.i.d., Week 8): −1.82 | DAS28(CRP) mean CFB (LOCF) - 24 weeks results ([2]; 2 × 25 mg b.i.d., Week 8): −1.82 | DAS28(CRP) mean CFB (LOCF) - 12 weeks results ([2]; 2 × 50 mg b.i.d., Week 1): −0.84 | DAS28(CRP) mean CFB (LOCF) - 24 weeks results ([2]; 2 × 50 mg b.i.d., Week 1): −0.84 | DAS28(CRP) mean CFB (LOCF) - 12 weeks results ([2]; 2 × 50 mg b.i.d., Week 12): −2.10 | DAS28(CRP) mean CFB (LOCF) - 24 weeks results ([2]; 2 × 50 mg b.i.d., Week 12): −2.10 | DAS28(CRP) mean CFB (LOCF) - 24 weeks results ([2]; 2 × 50 mg b.i.d., Week 20): −2.40 | DAS28(CRP) mean CFB (LOCF) - 24 weeks results ([2]; 2 × 50 mg b.i.d., Week 24): −2.40 | DAS28(CRP) mean CFB (LOCF) - 12 weeks results ([2]; 2 × 100 mg b.i.d., Week 8): −2.72 | DAS28(CRP) mean CFB (LOCF) - 24 weeks results ([2]; 2 × 100 mg b.i.d., Week 8): −2.72
